What was measured:
[1] = 100 kPa, Liquid; for viscosity: Concentric cylinders viscometry; for mass density: Vibrating tube method
[2] = xn = mol fraction of the nth substance listed; details: 100 kPa, Liquid, x2 = 0; for mass density: Vibrating tube method

CN(C)C=O [dimethylformamide]
[1]
Details | mass density [kg/m3] | viscosity [mPa·s]
298.15 K | 943.92 | 0.783
308.15 K | 934.35 | 0.699
318.15 K | 924.72 | 0.623
328.15 K | 915.06 | 0.555
338.15 K | 905.35 | 0.495
348.15 K | 895.57 | –

CN(C)C=O [dimethylformamide] + O=[PH](O)O
[2], Concentric cylinders viscometry
Details | viscosity [mPa·s]
298.15 K | 0.783
308.15 K | 0.699
318.15 K | 0.623
328.15 K | 0.555
338.15 K | 0.495

[2]
Details | mass density [kg/m3]
298.15 K | 943.92
308.15 K | 934.35
318.15 K | 924.72
328.15 K | 915.06
338.15 K | 905.35
348.15 K | 895.57

O [water]
[1]
Details | mass density [kg/m3] | viscosity [mPa·s]
298.15 K | – | 0.89
308.15 K | – | 0.719
318.15 K | – | 0.596
328.15 K | 985.69 | 0.504
338.15 K | 980.55 | 0.434

O [water] + O=[PH](O)O
[2], Capillary tube (Ostwald / Ubbelohde) method
Details | viscosity [mPa·s]
298.15 K | 0.89
308.15 K | 0.719
318.15 K | 0.596
328.15 K | 0.504
338.15 K | 0.434

[2]
Details | mass density [kg/m3]
328.15 K | 985.69
338.15 K | 980.55
